Assay results taken from patent publication US11802111B2, “Cyclobutyl amide monoacylglycerol lipase modulators” (Janssen Pharmaceutica NV, priority 2020, dated 2023).
pIC50: −log10 of the molar value.

Target: human MGL from HeLa cells (Homo sapiens (Human), UniProt Q99685)
Experiment: MGL in vitro activity assay ([glycerol-1,3-3H]-oleoyl glycerol hydrolysis, activated carbon filtration)
Type: biochemical
Details: 300 nM [Glycerol-1,3-3H]-oleoyl glycerol, one hour
Method in brief: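 Activity measured as tritium in the flow-through after activated carbon filtration of a 1 h reaction containing 300 nM 3H-oleoyl glycerol, compound and HeLa-derived human MGL. Compounds screened at 10 μM; IC50 series start at an empirically chosen highest concentration.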

Chain of human MGL from HeLa cells (Q99685 whole entry): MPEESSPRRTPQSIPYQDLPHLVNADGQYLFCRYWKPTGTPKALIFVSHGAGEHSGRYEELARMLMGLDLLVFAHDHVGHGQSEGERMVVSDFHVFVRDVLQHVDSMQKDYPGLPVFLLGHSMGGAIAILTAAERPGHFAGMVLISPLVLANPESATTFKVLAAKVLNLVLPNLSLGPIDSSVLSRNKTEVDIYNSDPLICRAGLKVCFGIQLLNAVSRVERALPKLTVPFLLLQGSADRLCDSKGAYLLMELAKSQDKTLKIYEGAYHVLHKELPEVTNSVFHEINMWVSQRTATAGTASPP

Structure (SMILES)	pIC50
C[C@]1(O)C[C@@H](C(=O)N2CC3(CC[C@@H](c4ccc(C5CC5)cc4)C3)C2)C1 [Example 51, ((R)-6-(4-Cyclopropylphenyl)-2-azaspiro[3.4]octan-2-yl)((1s,3S)-3-hydroxy-3-methylcyclobutyl)methanone]	8.26
Cc1cc([C@@H]2CCC3(C2)CN(C(=O)[C@H]2C[C@@](C)(O)C2)C3)ccc1Cl [Example 69, ((R)-6-(4-Chloro-3-methylphenyl)-2-azaspiro[3.4]octan-2-yl)((1s,3S)-3-hydroxy-3-methylcyclobutyl)methanone]	7.82
Cc1cc([C@H]2CCC3(C2)CN(C(=O)[C@H]2C[C@@](C)(O)C2)C3)ccc1Cl [Example 70, ((S)-6-(4-Chloro-3-methylphenyl)-2-azaspiro[3.4]octan-2-yl)((1s,3R)-3-hydroxy-3-methylcyclobutyl)methanone]	7.77
CC(C)(C)c1cccc(C2CC3(CCN(C(=O)[C@H]4C[C@@](C)(O)C4)C3)C2)c1 (stereo partly shown) [Example 89, (2-(3-(tert-Butyl)phenyl)-6-azaspiro[3.4]octan-6-yl)((1s,3s)-3-hydroxy-3-methylcyclobutyl)methanone]	6.90
COc1cc(C2CCC3(CC2)CN(C(=O)[C@H]2C[C@@](C)(O)C2)C3)ccc1F [Example 103, (7-(4-Fluoro-3-methoxyphenyl)-2-azaspiro[3.5]nonan-2-yl)((1s,3s)-3-hydroxy-3-methylcyclobutyl)methanone]	7.00
COc1cc(F)cc(C2CCC3(CC2)CN(C(=O)[C@H]2C[C@@](C)(O)C2)C3)c1 [Example 104, (7-(3-Fluoro-5-methoxyphenyl)-2-azaspiro[3.5]nonan-2-yl)((1s,3s)-3-hydroxy-3-methylcyclobutyl)methanone]	7.59
COc1ccc(C2CCC3(CC2)CN(C(=O)[C@H]2C[C@@](C)(O)C2)C3)cc1C [Example 105, ((1s,3s)-3-Hydroxy-3-methylcyclobutyl)(7-(4-methoxy-3-methylphenyl)-2-azaspiro[3.5]nonan-2-yl)methanone]	7.17
COc1cccc(C2CCC3(CC2)CN(C(=O)[C@H]2C[C@@](C)(O)C2)C3)c1C [Example 106, ((1s,3s)-3-Hydroxy-3-methylcyclobutyl)(7-(3-methoxy-2-methylphenyl)-2-azaspiro[3.5]nonan-2-yl)methanone]	7.52
COc1cc(C2CCC3(CC2)CN(C(=O)[C@H]2C[C@@](C)(O)C2)C3)ccc1C(F)(F)F [Example 113, ((1s,3s)-3-Hydroxy-3-methylcyclobutyl)(7-(3-methoxy-4-(trifluoromethyl)phenyl)-2-azaspiro[3.5]nonan-2-yl)methanone]	7.43
COc1ccc(C2CCC3(CC2)CN(C(=O)[C@H]2C[C@@](C)(O)C2)C3)cc1C(F)(F)F [Example 114, ((1s,3s)-3-Hydroxy-3-methylcyclobutyl)(7-(4-methoxy-3-(trifluoromethyl)phenyl)-2-azaspiro[3.5]nonan-2-yl)methanone]	7.19
CN(C)c1cc(C2CCC3(CC2)CN(C(=O)[C@H]2C[C@@](C)(O)C2)C3)ccc1C(F)(F)F [Example 115, (7-(3-(Dimethylamino)-4-(trifluoromethyl)phenyl)-2-azaspiro[3.5]nonan-2-yl)((1s,3s)-3-hydroxy-3-methylcyclobutyl)methanone]	7.77
CC(C)(C)c1cccc(C2CCC3(CC2)CN(C(=O)[C@H]2C[C@@](C)(O)C2)C3)n1 [Example 116, (7-(6-(tert-Butyl)pyridin-2-yl)-2-azaspiro[3.5]nonan-2-yl)((1s,3s)-3-hydroxy-3-methylcyclobutyl)methanone]	8.36
COc1cccc(C2CCC3(CC2)CN(C(=O)[C@H]2C[C@@](C)(O)C2)C3)n1 [Example 117, ((1s,3s)-3-Hydroxy-3-methylcyclobutyl)(7-(6-methoxypyridin-2-yl)-2-azaspiro[3.5]nonan-2-yl)methanone]	6.38
COc1ccc(C2CCC3(CC2)CN(C(=O)[C@H]2C[C@@](C)(O)C2)C3)cc1C(C)(C)C [Example 118, (7-(3-(tert-Butyl)-4-methoxyphenyl)-2-azaspiro[3.5]nonan-2-yl)((1s,3s)-3-hydroxy-3-methylcyclobutyl)methanone]	7.70
COc1cc(C2CCC3(CC2)CN(C(=O)[C@H]2C[C@@](C)(O)C2)C3)cc(C(F)(F)F)c1 [Example 119, ((1s,3s)-3-Hydroxy-3-methylcyclobutyl)(7-(3-methoxy-5-(trifluoromethyl)phenyl)-2-azaspiro[3.5]nonan-2-yl)methanone]	7.92
CCOc1cc(C2CCC3(CC2)CN(C(=O)[C@H]2C[C@@](C)(O)C2)C3)cc(C(F)(F)F)c1 [Example 120, (7-(3-Ethoxy-5-(trifluoromethyl)phenyl)-2-azaspiro[3.5]nonan-2-yl)((1s,3s)-3-hydroxy-3-methylcyclobutyl)methanone]	6.85
CCc1cc(C)cc(C2CCC3(CC2)CN(C(=O)[C@H]2C[C@@](C)(O)C2)C3)c1 [Example 121, (7-(3-Ethyl-5-methylphenyl)-2-azaspiro[3.5]nonan-2-yl)((1s,3s)-3-hydroxy-3-methylcyclobutyl)methanone]	8.13

Structure (SMILES)	pIC50
Cn1ncc2cc(C3CCC4(CC3)CN(C(=O)[C@H]3C[C@@](C)(O)C3)C4)ccc21 [Example 122, ((1s,3s)-3-Hydroxy-3-methylcyclobutyl)(7-(1-methyl-1H-indazol-5-yl)-2-azaspiro[3.5]nonan-2-yl)methanone]	6.84
CN(C)c1cc(C2CCC3(CC2)CN(C(=O)[C@H]2C[C@@](C)(O)C2)C3)cc(C(F)(F)F)c1 [Example 123, (7-(3-(Dimethylamino)-5-(trifluoromethyl)phenyl)-2-azaspiro[3.5]nonan-2-yl)((1s,3s)-3-hydroxy-3-methylcyclobutyl)methanone]	7.57
C[C@]1(O)C[C@@H](C(=O)N2CC3(CCC(c4ccc5ccccc5n4)CC3)C2)C1 [Example 124, ((1s,3s)-3-Hydroxy-3-methylcyclobutyl)(7-(quinolin-2-yl)-2-azaspiro[3.5]nonan-2-yl)methanone]	6.64
C[C@]1(O)C[C@@H](C(=O)N2CC3(CCC(c4ccc5c(c4)CCC5)CC3)C2)C1 [Example 127, (7-(2,3-Dihydro-1H-inden-5-yl)-2-azaspiro[3.5]nonan-2-yl)((1s,3s)-3-hydroxy-3-methylcyclobutyl)methanone]	7.85
COc1cc(C)cc(C2CCC3(CC2)CN(C(=O)[C@H]2C[C@@](C)(O)C2)C3)c1 [Example 128, ((1s,3s)-3-Hydroxy-3-methylcyclobutyl)(7-(3-methoxy-5-methylphenyl)-2-azaspiro[3.5]nonan-2-yl)methanone]	7.52
COc1cc(C2CCC3(CC2)CN(C(=O)[C@H]2C[C@@](C)(O)C2)C3)ccc1C [Example 129, ((1s,3s)-3-Hydroxy-3-methylcyclobutyl)(7-(3-methoxy-4-methylphenyl)-2-azaspiro[3.5]nonan-2-yl)methanone]	7.60
CC(C)c1ccc(C2CCC3(CC2)CN(C(=O)[C@H]2C[C@@](C)(O)C2)C3)cc1 [Example 130, ((1s,3s)-3-Hydroxy-3-methylcyclobutyl)(7-(4-isopropylphenyl)-2-azaspiro[3.5]nonan-2-yl)methanone]	7.77
COc1cccc(C2CCC3(CC2)CN(C(=O)[C@H]2C[C@@](C)(O)C2)C3)c1 [Example 131, ((1s,3s)-3-Hydroxy-3-methylcyclobutyl)(7-(3-methoxyphenyl)-2-azaspiro[3.5]nonan-2-yl)methanone]	7.49
CCOc1cccc(C2CCC3(CC2)CN(C(=O)[C@H]2C[C@@](C)(O)C2)C3)c1 [Example 132, (7-(3-Ethoxyphenyl)-2-azaspiro[3.5]nonan-2-yl)((1s,3s)-3-hydroxy-3-methylcyclobutyl)methanone]	7.39
CC(C)c1cccc(C2CCC3(CC2)CN(C(=O)[C@H]2C[C@@](C)(O)C2)C3)c1 [Example 133, ((1s,3s)-3-Hydroxy-3-methylcyclobutyl)(7-(3-isopropylphenyl)-2-azaspiro[3.5]nonan-2-yl)methanone]	8.09
Cc1ccc(C2CCC3(CC2)CN(C(=O)[C@H]2C[C@@](C)(O)C2)C3)cc1C [Example 134, (7-(3,4-Dimethylphenyl)-2-azaspiro[3.5]nonan-2-yl)((1s,3s)-3-hydroxy-3-methylcyclobutyl)methanone]	7.92
CC(C)(C)c1cccc(C2CCC3(CC2)CN(C(=O)[C@H]2C[C@@](C)(O)C2)C3)c1 [Example 135, (7-(3-(tert-Butyl)phenyl)-2-azaspiro[3.5]nonan-2-yl)((1s,3s)-3-hydroxy-3-methylcyclobutyl)methanone]	8.68
Cc1ccc(C2CCC3(CC2)CN(C(=O)[C@H]2C[C@@](C)(O)C2)C3)cc1 [Example 136, ((1s,3s)-3-Hydroxy-3-methylcyclobutyl)(7-(p-tolyl)-2-azaspiro[3.5]nonan-2-yl)methanone]	7.46
Cc1cccc(C2CCC3(CC2)CN(C(=O)[C@H]2C[C@@](C)(O)C2)C3)c1 [Example 137, ((1s,3s)-3-Hydroxy-3-methylcyclobutyl)(7-(m-tolyl)-2-azaspiro[3.5]nonan-2-yl)methanone]	7.42
Cc1ccccc1C1CCC2(CC1)CN(C(=O)[C@H]1C[C@@](C)(O)C1)C2 [Example 138, ((1s,3s)-3-Hydroxy-3-methylcyclobutyl)(7-(o-tolyl)-2-azaspiro[3.5]nonan-2-yl)methanone]	7.33
CC(C)(C)c1cc(C2CCC3(CC2)CN(C(=O)[C@H]2C[C@@](C)(O)C2)C3)ccn1 [Example 139, (7-(2-(tert-Butyl)pyridin-4-yl)-2-azaspiro[3.5]nonan-2-yl)((1s,3s)-3-hydroxy-3-methylcyclobutyl)methanone]	6.78
COc1cc(C2CCC3(CC2)CN(C(=O)[C@H]2C[C@@](C)(O)C2)C3)ccc1C1CC1 [Example 140, (7-(4-Cyclopropyl-3-methoxyphenyl)-2-azaspiro[3.5]nonan-2-yl)((1s,3s)-3-hydroxy-3-methylcyclobutyl)methanone]	7.48
